Article PMC8540097, “Novel Oleanolic Acid-Tryptamine and -Fluorotryptamine Amides: From Adaptogens to Agents Targeting In Vitro Cell Apoptosis” (Plants, 2021)
Where “and” joins values, the source holds several entries; their conditions need not be identical. Equal values may be shown once. Read-outs that look alike come from different tables or passages of the source.

Key:
[1] = tested on: G-361 (malignant melanoma); test: Cytotoxicity screening test, G-361 cells (resazurin, 72 h); format: cell-based, human
Procedure: (§1) The screening human cancer cell lines used in this investigation were CEM (T-lymphoblastic leukemia), MCF7 (breast carcinoma), HeLa (cervical carcinoma) and G-361 (malignant melanoma) from the European Collection of Authenticated Cell Cultures (Salisbury, UK). Human foreskin fibroblasts (BJ) were used as reference cells, and they were a kind gift from Prof. Bartek from Danish Cancer Society Center (Copenhagen, Denmark). Cells were cultured in DMEM (Dulbecco’s Modified Eagle Medium) or in RPMI 1640 medium (CEM). Media used were supplemented with 10% fetal or 20% (CEM) bovine serum, L-glutamine (2 mM), and 1% penicillin-streptomycin mixture (all from Sigma, MO, USA). The cell lines were maintained under standard cell culture conditions at 37 °C and 5% CO2 in a humid environment. Cells were subcultured twice or three times a week using the standard trypsinization procedure. A description of the experimental procedure used in the cytotoxicity screening tests was already published. The cell viability was measured after 72 h using resazurin (Sigma, St. Louis, MO, USA).

[2] = tested on: HeLa (cervical carcinoma); test: Cytotoxicity screening test, HeLa cells (resazurin, 72 h); format: cell-based, human
Procedure: as §1

[3] = tested on: MCF7 (breast carcinoma); test: Cytotoxicity screening test, MCF7 cells (resazurin, 72 h); format: cell-based, human
Procedure: as §1

[4] = tested on: CEM (T-lymphoblastic leukemia); test: Cytotoxicity screening test, CEM cells (resazurin, 72 h); format: cell-based; conditions: Homo sapiens, CCRF-CEM
Procedure: as §1

[5] = Cytotoxicity screening test, BJ reference fibroblasts (resazurin, 72 h); format: cell-based; conditions: human, BJ foreskin fibroblasts (normal reference cells)
Procedure: as §1

[6] = tested on: cervical carcinoma cells (HeLa); test: Flow cytometric analysis of cell cycle and apoptosis, HeLa cells; format: cell-based, human; conditions: 24 h
Procedure: (§2) A flow cytometric analysis, SDS–polyacrylamide gel electrophoresis and immunoblotting, and activities of caspase-3/7 were used to detect apoptosis in cervical carcinoma cells (HeLa) and malignant melanoma cells (G-361) treated for 24 h with 3a–3c (c = 3, 10 and 30 µM). The DNA content of HeLa or G-361 treated with 3a–3c for 24 h were analyzed using flow cytometry. Cells (HeLa and G-361), treated with the same concentrations of compounds for 24 h, were analyzed using electrophoresis and Western blotting, and the activity of caspase-3/7 by the standard methods. All experimental details of these methods were described in our recent paper.
Figure 1 Flow cytometric analysis of cell cycle of HeLa cancer cells (A) and apoptosis (B). Flow cytometric analysis of cell cycle (A) and apoptosis (B) of human cervical carcinoma cells (HeLa) after 24 h with 3a–3c (3, 10 and 30 µM). The bars 0 means control untreated cells, the bars 0+ means control with DMSO. The experiment was repeated at least twice in triplicates. All data were analyzed by statistical software. Significance is indicated with an asterisk (*) (p ˂ 0.05).

[7] = tested on: malignant melanoma cells (G-361); test: Flow cytometric analysis of cell cycle and apoptosis, G-361 cells; format: cell-based, human; conditions: G-361, 24 h
Procedure: as §2
3. Apoptosis in human cancer cells.
A detailed description of investigation of apoptosis in the HeLa and G-361 cancer cells is given in the main text of this paper. Because the results achieved with the G-361 cancer cells appeared to be less pronounced than those achieved with the HeLa cells, Figures S1A, S1B, S2 and S3 showing the results with G-361 cells are presented in the Supplementary material.
Figure S1A and S1B. Flow cytometric analysis of cell cycle (A) and apoptosis (B) of human malignant melanoma cells (G-361) after 24 h with 3a–3c (3, 10 and 30 µM). The bars 0 means control untreated cells, the bars 0+ means control with DMSO. Error bars are omitted for graph clarity. Experiment was repeated at least twice in duplicates.
Figure S1A. Flow cytometric analysis of cell cycle of G-361 cancer cells.
(1 picture or pasted object on this page, not shown here)

[8] = tested on: caspase-3/7 in HeLa cells; test: Activity of caspase-3/7 in HeLa cells; format: cell-based, human; conditions: 24 h, c = 30 µM, versus control
Procedure: as §2
Figure 3 Activity of caspase-3/7. Activity of caspase-3/7 after 24 h treatment with 3a–3c (3, 10 and 30 µM) in HeLa cells. The bars 0 are control untreated cells, the bars 0+ are control cells with DMSO. The experiment was repeated at least twice in duplicates. All data were analyzed by statistical software. Significance is indicated with an asterisk (*) (p ˂ 0.05).

[9] = Homo sapiens, G-361, 72 h, resazurin, read-out: Cytotoxicity IC50, G-361
[10] = Homo sapiens, HeLa, resazurin, read-out: Cytotoxicity IC50, HeLa
[11] = Homo sapiens, MCF7, 72 h, resazurin, read-out: Cytotoxicity IC50, MCF7
[12] = Homo sapiens, G-361, resazurin, read-out: Cytotoxicity IC50, G-361
[13] = Homo sapiens, MCF7, resazurin, read-out: Cytotoxicity IC50, MCF7
[14] = individual runs, Table S1, read-out: Cytotoxicity IC50, G361, single repeated screening runs (italics)
[15] = Homo sapiens, HeLa, individual runs, Table S1, read-out: Cytotoxicity IC50, HeLa, single repeated screening runs (italics)
[16] = individual runs, Table S1, read-out: Cytotoxicity IC50, HeLa, single repeated screening runs (italics)
[17] = individual runs, Table S1, read-out: Cytotoxicity IC50, MCF7, single repeated screening runs (italics)

Compound	IC50 [1, 9] [µM]	IC50 [2, 10] [µM]	IC50 [3, 11] [µM]	IC50 [4] [µM]	IC50 at 72 h [5] [µM]	IC50 [1, 14]	IC50 [2, 15] [µM]	IC50 [2, 16]	Effect on cell cycle ([6]; c = 30 µM)	melting point [°C]	also measured
CC1(C)CC[C@]2(C(=O)O)CC[C@]3(C)C(=CC[C@@H]4[C@@]5(C)CC[C@H](O)C(C)(C)[C@@H]5CC[C@]43C)[C@@H]2C1 [Compound 1, (3β)-3-hydroxyolean-12-en-28-oic acid, reference compound]	> 50	> 50	> 50	> 50	> 50	–	–	–	–	–	–
CC(=O)O[C@H]1CC[C@]2(C)[C@H]3CC=C4[C@@H]5CC(C)(C)CC[C@]5(C(=O)O)CC[C@@]4(C)[C@]3(C)CC[C@H]2C1(C)C [Compound 2, (3β)-3-(acetyloxy)olean-12-en-28-oic acid]	–	> 50	–	> 50	> 50	–	–	–	–	–	IC50 [1, 12]: > 50 µM; IC50 [3, 13]: > 50 µM
CC(=O)O[C@H]1CC[C@]2(C)[C@H]3CC=C4[C@@H]5CC(C)(C)CC[C@]5(C(=O)NCCc5c[nH]c6ccccc56)CC[C@@]4(C)[C@]3(C)CC[C@H]2C1(C)C [Compound 3a, Tryptamine amide of (3β)-3-(acetyloxy)olean-12-en-28-oic acid]	9 ± 0.4	8.7 ± 0.4	> 50	> 50	> 50	9.2 µM	8.4	9 µM	cell cycle arrest in the G2/M phase	–	IC50 ([1]; Homo sapiens, G-361, 72 h, individual runs, Table S1, read-out: Cytotoxicity IC50, G361, single repeated screening runs (italics)): 8.7 µM; Induction of apoptosis (apoptotic cells) ([6]; c = 30 µM): 4%; Level of apoptotic cells in subG1 phase [7]: up to 7.7%; Effect on cell cycle ([7]; c = 10 µM): increase of accumulation of the S-phase cells; Induction of caspase-3/7 activity [8]: up to 4 times
CC(=O)O[C@H]1CC[C@]2(C)[C@H]3CC=C4[C@@H]5CC(C)(C)CC[C@]5(C(=O)NCCc5c[nH]c6cc(F)ccc56)CC[C@@]4(C)[C@]3(C)CC[C@H]2C1(C)C [Compound 3b]	15.9 ± 6.6	6.7 ± 1.4	> 50	> 50	> 50	> 50 µM and 23 µM and 9.9 µM and 14.9 µM	–	7.7 µM and 13.1 µM and 5.7 µM	increased the number of cells in the G2/M phase	139 to 140	Induction of apoptosis (apoptotic cells) ([6]; c = 10 µM): up to 6.4%; Level of apoptotic cells in subG1 phase [7]: increased the level of apoptotic cells; Effect on cell cycle ([7]; c = 10 µM): increase of accumulation of the S-phase cells; Induction of caspase-3/7 activity [8]: up to 4.6 times
CC(=O)O[C@H]1CC[C@]2(C)[C@H]3CC=C4[C@@H]5CC(C)(C)CC[C@]5(C(=O)NCCc5c[nH]c6ccc(F)cc56)CC[C@@]4(C)[C@]3(C)CC[C@H]2C1(C)C [Compound 3c]	> 50	12.2 ± 4.7	> 50	> 50	> 50	–	–	10.4 µM and 17.6 µM and 8.7 µM	increased the number of cells in the G2/M phase	138 to 139	Induction of apoptosis (apoptotic cells) ([6]; c = 30 µM): 2.7%; Effect on cell cycle ([7]; c = 3 µM): increase of accumulation of the S-phase cells
CC1(C)CCC2(C(=O)NCCc3c[nH]c4ccccc34)CCC3(C)C(=CCC4C5(C)CCC(O)C(C)(C)C5CCC43C)C2C1 (stereo not drawn) [Compound 4a]	> 50	> 50	> 50	> 50	> 50	> 50 µM (2×) and 19.7 µM	–	20.4 µM and > 50 µM (2×)	–	–	–
CC1(C)CCC2(C(=O)NCCc3c[nH]c4cc(F)ccc34)CCC3(C)C(=CCC4C5(C)CCC(O)C(C)(C)C5CCC43C)C2C1 (stereo not drawn) [Compound 4b]	> 50	27.9 ± 0.8	> 50	> 50	> 50	–	27.3	28.5 µM and > 50 µM	–	149 to 150	IC50 ([3]; Homo sapiens, MCF7, 72 h, individual runs, Table S1, read-out: Cytotoxicity IC50, MCF7, single repeated screening runs (italics)): 44.5 µM; IC50 [3, 17]: > 50 µM
CC1(C)CCC2(C(=O)NCCc3c[nH]c4ccc(F)cc34)CCC3(C)C(=CCC4C5(C)CCC(O)C(C)(C)C5CCC43C)C2C1 (stereo not drawn) [Compound 4c]	> 50	20.3 ± 7.6	13.5 ± 3.3	> 50	> 50	–	14.9	29 µM and 17.1 µM	–	147 to 148	IC50 [3, 17]: 31.8 µM and > 50 µM and 11.2 µM and 15.8 µM
NCCc1c[nH]c2ccccc12 [tryptamine]	–	> 50	–	> 50	> 50	–	–	–	–	–	IC50 [1, 12]: > 50 µM; IC50 [3, 13]: > 50 µM
